The values that follow come from patent US20080132505A1 (Glaxo Group Limited, priority 2004, published 2008).

The term EC50 denotes the concentration at which the effect is half-maximal. One may read the Emax as the size of the effect at its maximum, as opposed to the concentration needed.

Counter-ions that a name gives are not always drawn. Like-named read-outs stand apart in the source and are kept apart here.

The target of this test is human cannabinoid CB2 receptor (Homo sapiens, UniProt P34972). The experiment in a line: Cannabinoid CB2 receptor agonist activity (yeast reporter assay, FDGlu fluorescence). In kind it is cell-based. To be noted: for Emax: read-out: efficacy value (Emax relative to HU210) at the cloned human cannabinoid CB2 receptor. In outline:
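S. cerevisiae MMY23 expressing human CB2 with a Gpa1/Gαi3 chimeric G-protein, grown 24 h at 30 °C with agonist (1% DMSO) in selective media containing 10 mM 3-aminotriazole and FDGlu, pH 7.0. Fluorescein fluorescence (485/535 nm) fitted by four-parameter curve; Emax and EMR relative to HU210.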
(In a reporter assay the amount or activity of a reporter protein is the signal.)

The mark [1] stands for this setting: EC50 value at the cloned human cannabinoid CB2 receptor.
The mark [2] stands for this setting: read-out: EC50 value at the cloned human cannabinoid CB2 receptor.

Chain of human cannabinoid CB2 receptor (P34972 whole entry): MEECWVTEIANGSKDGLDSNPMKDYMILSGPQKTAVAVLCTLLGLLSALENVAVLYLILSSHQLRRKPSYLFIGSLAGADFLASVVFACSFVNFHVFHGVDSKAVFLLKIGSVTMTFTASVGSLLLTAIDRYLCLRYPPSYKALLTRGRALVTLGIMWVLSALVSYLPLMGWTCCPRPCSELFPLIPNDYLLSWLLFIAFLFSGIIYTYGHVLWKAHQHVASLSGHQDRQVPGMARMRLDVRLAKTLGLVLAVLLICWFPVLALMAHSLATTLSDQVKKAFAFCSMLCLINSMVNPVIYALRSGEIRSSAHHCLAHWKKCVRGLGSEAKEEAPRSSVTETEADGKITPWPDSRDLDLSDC

For `COc1ccccc1Nc1ncc(C(=O)NCc2ccccc2)c(C(F)(F)F)n1` [Example 280, 2-(2-Methoxyphenylamino)-4-trifluoromethylpyrimidine-5-carboxylic acid benzyl-amide], the Emax is over 50%. Under setting [1], this compound gave an EC50 of 20 to 300 nM. Regarding `O=C(NCc1ccncc1)c1cnc(Nc2cccc(Cl)c2Cl)nc1C(F)(F)F` [Example 281, 2-(2,3-Dichlorophenylamino)-4-trifluoromethylpyrimidine-5-carboxylic acid (pyridin-4-ylmethyl)amide], the EC50 under setting [1] lay within 20 to 300 nM.

In the case of `O=C(NCc1ccncc1)c1cnc(Nc2ccc(Cl)cc2Cl)nc1C(F)(F)F` [Example 282, 2-(2,4-Dichlorophenylamino)-4-trifluoromethylpyrimidine-5-carboxylic acid (pyridin-4-ylmethyl)amide], the EC50 under setting [1] lay within 20 to 300 nM. The same measure, in the same setting: the result for `O=C(NCc1ccncc1)c1cnc(Nc2ccc(Cl)c(Cl)c2)nc1C(F)(F)F` [Example 283, 2-(3,4-Dichlorophenylamino)-4-trifluoromethylpyrimidine-5-carboxylic acid (pyridin-4-ylmethyl)amide] reads 20 to 300 nM; that for `O=C(NCc1ccncc1)c1cnc(Nc2cc(Cl)ccc2Cl)nc1C(F)(F)F` [Example 284, 2-(2,5-Dichlorophenylamino)-4-trifluoromethylpyrimidine-5-carboxylic acid (pyridin-4-ylmethyl)amide], 20 to 300 nM. Take `O=C(NCc1ccncc1)c1cnc(Nc2cccc(F)c2)nc1C(F)(F)F` [Example 285, 2-(3-Fluorophenylamino)-4-trifluoromethylpyrimidine-5-carboxylic acid (pyridin-4-ylmethyl)amide]: under setting [1], the EC50 was 20 to 300 nM. Same read-out and setting: to `O=C(NCc1ccncc1)c1cnc(Nc2cccc(Br)c2)nc1C(F)(F)F` [Example 286, 2-(3-Bromophenylamino)-4-trifluoromethylpyrimidine-5-carboxylic acid (pyridin-4-ylmethyl)amide] belongs 20 to 300 nM; to `O=C(NCc1ccncc1)c1cnc(Nc2cc(Cl)cc(Cl)c2)nc1C(F)(F)F` [Example 287, 2-(3,5-Dichlorophenylamino)-4-trifluoromethylprimidine-5-carboxylic acid (pyridin-4-ylmethyl)amide], 20 to 300 nM; to `O=C(NCc1ccc(F)cc1)c1cnc(Nc2cccc(F)c2)nc1C(F)(F)F` [Example 288, 2-(3-Fluorophenylamino)-4-trifluoromethylpyrimidine-5-carboxylic acid 4-fluorobenzyl-amide], 20 to 300 nM.

For `O=C(NCc1ccc(F)cc1)c1cnc(Nc2cccc(Br)c2)nc1C(F)(F)F` [Example 289, 2-(3-Bromophenylamino)-4-trifluoromethylpyrimidine-5-carboxylic acid 4-fluorobenzyl-amide], the EC50 under setting [2] fell in the range of 20 to 300 nM. Turning to `O=C(NCc1ccc(F)cc1)c1cnc(Nc2cc(Cl)cc(Cl)c2)nc1C(F)(F)F` [Example 290, 2-(3,5-Dichlorophenylamino)-4-trifluoromethylpyrimidine-5-carboxylic acid 4-fluorobenzyl-amide], the EC50 under setting [1] was in the range of 20 to 300 nM. Same read-out and setting: the result for `N#Cc1ccc(CNC(=O)c2cnc(Nc3cc(Cl)cc(Cl)c3)nc2C(F)(F)F)cc1` [Example 291, 2-(3,5-Dichlorophenylamino)-4-trifluoromethylpyrimidine-5-carboxylic acid 4-cyanobenzylamide] reads 20 to 300 nM.

Regarding `N#Cc1ccc(Nc2ncc(C(=O)NCc3ccccc3)c(C(F)(F)F)n2)cc1` [Example 292, 2-(4-Cyano-phenylamino)-4-trifluoromethyl-pyrimidine-5-carboxylic acid benzylamide], the Emax was over 50%. This compound showed an EC50 under setting [1] of 20 to 300 nM.

`Cc1cc(CNC(=O)c2cnc(Nc3cccc(Cl)c3)nc2C(F)(F)F)ccn1` [Example 293, 2-(3-Chloro-phenylamino)-4-trifluoromethyl-pyrimidine-5-carboxylic acid (2-methyl-pyridin-4-ylmethyl)-amide hydrochloride] showed an EC50 under setting [1] of 20 to 300 nM. Still for that read-out and setting: to `O=C(NCc1ccnc(F)c1)c1cnc(Nc2cccc(Cl)c2)nc1C(F)(F)F` [Example 294, 2-(3-Chloro-phenylamino)-4-trifluoromethyl-pyrimidine-5-carboxylic acid (2-fluoro-pyridin-4-ylmethyl)-amide] belongs 20 to 300 nM. In the case of `COc1cccc(Nc2ncc(C(=O)NCc3ccccc3)c(C(F)(F)F)n2)c1` [Example 295, 2-(3-Methoxy-phenylamino)-4-trifluoromethyl-pyrimidine-5-carboxylic acid benzylamide], the Emax is over 50%. Under setting [1], the EC50 was in the range of 300 to 1000 nM. Consider `COc1ccccc1Nc1ncc(C(=O)N(C)Cc2ccccc2)c(C(F)(F)F)n1` [Example 296, 2-(2-Methoxy-phenylamino)-4-trifluoromethyl-pyrimidine-5-carboxylic acid N-benzyl-N-methyl-amide], for which the EC50 under setting [2] fell in the range of 300 to 1000 nM. For the compound `COc1cccc(Nc2ncc(C(=O)N(C)Cc3ccccc3)c(C(F)(F)F)n2)c1` [Example 297, 2-(3-Methoxy-phenylamino)-4-trifluoromethyl-pyrimidine-5-carboxylic acid N-benzyl-N-methyl-amide], the Emax was over 50%. The same compound registered an EC50 under setting [1] of 300 to 1000 nM. Taken in the same sequence, the figures for `O=C(NCc1ccc(Cl)cc1)c1cnc(Nc2cccc(Cl)c2)nc1C(F)(F)F` [Example 298, 2-(3-Chloro-phenylamino)-4-trifluoromethyl-pyrimidine-5-carboxylic acid 4-chloro-benzylamide] were over 50% and 300 to 1000 nM. In the same order, the values of `CCN(Cc1ccccc1)C(=O)c1cnc(Nc2cccc(Cl)c2)nc1C(F)(F)F` [Example 299, 2-(3-Chloro-phenylamino)-4-trifluoromethyl-pyrimidine-5-carboxylic acid N-benzyl-N-ethyl-amide] are over 50% and 300 to 1000 nM. In the same order, the values of `O=C(NCc1ccccc1)c1cnc(Nc2cccc(Cl)c2Cl)nc1C(F)(F)F` [Example 300, 2-(2,3-Dichloro-phenylamino)-4-trifluoromethyl-pyrimidine-5-carboxylic acid benzylamide] are over 50% and 300 to 1000 nM. With `CN(Cc1ccccc1)C(=O)c1cnc(Nc2cccc(F)c2)nc1C(F)(F)F` [Example 301, 2-(3-Fluoro-phenylamino)-4-trifluoromethyl-pyrimidine-5-carboxylic acid N-benzyl-N-methyl-amide], the Emax is over 50%. Besides, under setting [1], the EC50 lay in the range of 300 to 1000 nM.

In the case of `CC(C)Cc1ccc(CNC(=O)c2cnc(Nc3cccc(Cl)c3)nc2C(F)(F)F)cc1` [Example 302, 2-(3-Chloro-phenylamino)-4-trifluoromethyl-pyrimidine-5-carboxylic acid 4-isobutyl-benzylamide], the Emax is over 50%. Moreover, under setting [1], the EC50 is 300 to 1000 nM.

For `Cc1cc(CNC(=O)c2cnc(Nc3cccc(Cl)c3)nc2C(F)(F)F)ccn1` [Example 303, 2-(3-Chloro-phenylamino)-4-trifluoromethyl-pyrimidine-5-carboxylic acid (2-methyl-pyridin-4-ylmethyl)-amide], under setting [1], the EC50 fell in the range of 300 to 1000 nM.

Turning to `Cc1cc(CNC(=O)c2cnc(Nc3cccc(Br)c3)nc2C(F)(F)F)ccn1` [Example 304, 2-(3-Bromo-phenylamino)-4-trifluoromethyl-pyrimidine-5-carboxylic acid (2-methyl-pyridin-4-ylmethyl)-amide], the Emax was over 50%. This compound returned an EC50 under setting [1] of 300 to 1000 nM.
